Measured values published in BindingDB's records for doi:10.1016/s0006-291x(02)03054-1 (Pharmacia, 2003).

Target: FMRFamide-like neuropeptides 14 (Ascaris)

Ki: 10.5 nM
Structure (SMILES): Nc1nc2c(ncn2C2OC(COP(=O)(O)OP(=O)(O)OP(=O)(O)O)C(O)C2O)c(=O)[nH]1 (stereo unspecified) [CAS_6830]
